Reference: PubChem BioAssay (NCI)
Several values for one entry are separate records, joined by “and”; a condition that tells them apart may be missing. Equal values may be shown once.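 Five concentrations, 48 hours, 96-well plates. Abbreviation: GI50, concentration required for 50% inhibition of growth. TGI marks complete inhibition of growth.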

Tests used:
Test in all cases: DTP human tumour cell line panel, 48 h
CCRF-CEM leukemia = system: CCRF-CEM leukemia
HCT-15 colon = system: HCT-15 colon
HOP-92 NSCLC = system: HOP-92 NSCLC
K-562 leukemia = system: K-562 leukemia
KM12 colon = system: KM12 colon
OVCAR-8 ovarian = system: OVCAR-8 ovarian
SF-295 CNS = system: SF-295 CNS
SK-OV-3 ovarian = system: SK-OV-3 ovarian
U251 CNS = system: U251 CNS
UACC-257 melanoma = system: UACC-257 melanoma

CC[C@@]1(O)C(=O)OCc2c1cc1n(c2=O)Cc2cc3cc(N)ccc3nc2-1
GI50 (CCRF-CEM leukemia): 0.1 µM | GI50 (HCT-15 colon): 0.214 µM and 0.102 µM | GI50 (HOP-92 NSCLC): 0.0132 µM and < 0.025 µM | TGI (HOP-92 NSCLC): 0.773 µM and 0.247 µM | GI50 (K-562 leukemia): 0.0512 µM and 0.043 µM | GI50 (KM12 colon): 0.232 µM | TGI (KM12 colon): 2.9 µM | GI50 (OVCAR-8 ovarian): 0.0218 µM | TGI (OVCAR-8 ovarian): 0.412 µM and 0.198 µM | GI50 (SF-295 CNS): 0.00207 µM | TGI (SF-295 CNS): 0.0717 µM and 0.055 µM | GI50 (SK-OV-3 ovarian): 0.035 µM | TGI (SK-OV-3 ovarian): 2.64 µM and 0.756 µM | GI50 (U251 CNS): 0.0013 µM | TGI (U251 CNS): 0.134 µM | GI50 (UACC-257 melanoma): 0.0441 µM and 0.0423 µM | TGI (UACC-257 melanoma): 0.642 µM and 0.375 µM

O=[N+]([O-])c1ccc2c(c1)[O][Sn]([I])([I])[O]2
GI50 (CCRF-CEM leukemia): 42.3 µM | TGI (CCRF-CEM leukemia): > 100 µM | GI50 (HCT-15 colon): 54.4 µM | TGI (HCT-15 colon): > 100 µM | GI50 (HOP-92 NSCLC): > 100 µM | TGI (HOP-92 NSCLC): > 100 µM | GI50 (K-562 leukemia): > 100 µM | TGI (K-562 leukemia): > 100 µM | GI50 (KM12 colon): > 100 µM | TGI (KM12 colon): > 100 µM | GI50 (OVCAR-8 ovarian): > 100 µM | TGI (OVCAR-8 ovarian): > 100 µM | GI50 (SF-295 CNS): > 100 µM | TGI (SF-295 CNS): > 100 µM | GI50 (SK-OV-3 ovarian): > 100 µM | TGI (SK-OV-3 ovarian): > 100 µM | GI50 (U251 CNS): > 100 µM | TGI (U251 CNS): > 100 µM | GI50 (UACC-257 melanoma): > 100 µM | TGI (UACC-257 melanoma): > 100 µM

CCN(CC)CCNc1n[n+]([O-])c2ccccc2[n+]1[O-]
TGI (CCRF-CEM leukemia): 13.7 µM and 30.6 µM | TGI (HCT-15 colon): 26.1 µM and 25 µM | GI50 (HOP-92 NSCLC): 2.28 µM and 7.45 µM | TGI (HOP-92 NSCLC): > 21.8 µM and 46.6 µM | TGI (K-562 leukemia): 6.45 µM and 18.5 µM | TGI (KM12 colon): 25.2 µM and 29 µM | TGI (OVCAR-8 ovarian): 31.1 µM and 27 µM | TGI (SF-295 CNS): 39.5 µM and 23.9 µM | TGI (SK-OV-3 ovarian): 32.4 µM | TGI (U251 CNS): > 52.4 µM and 36.9 µM | GI50 (UACC-257 melanoma): 8.39 µM and 3.54 µM | TGI (UACC-257 melanoma): 18.3 µM and 20.4 µM

Cc1cc(-c2nnc3n2CCCCC3)c(C)n1-c1ccc(Cl)c(Cl)c1
GI50 (CCRF-CEM leukemia): 18.5 µM | TGI (CCRF-CEM leukemia): 71.5 µM | GI50 (HCT-15 colon): 11.7 µM | TGI (HCT-15 colon): > 100 µM | GI50 (HOP-92 NSCLC): 11.9 µM | TGI (HOP-92 NSCLC): 31.9 µM | GI50 (K-562 leukemia): 5.14 µM | TGI (K-562 leukemia): 39.3 µM | GI50 (KM12 colon): 16.6 µM | TGI (KM12 colon): 32 µM | GI50 (OVCAR-8 ovarian): 15.4 µM | TGI (OVCAR-8 ovarian): 64.1 µM | GI50 (SF-295 CNS): 16.4 µM | TGI (SF-295 CNS): 52.5 µM | GI50 (SK-OV-3 ovarian): 19.2 µM | TGI (SK-OV-3 ovarian): 45.7 µM | GI50 (U251 CNS): 14.5 µM | TGI (U251 CNS): 31.2 µM | GI50 (UACC-257 melanoma): 12.7 µM | TGI (UACC-257 melanoma): 32.3 µM

O=C1c2ccccc2-n2c1nc1ccccc1c2=O
TGI (CCRF-CEM leukemia): > 100 µM | TGI (HCT-15 colon): > 81.3 µM | TGI (HOP-92 NSCLC): > 100 µM | TGI (K-562 leukemia): > 44.6 µM | TGI (KM12 colon): > 67.1 µM | TGI (OVCAR-8 ovarian): > 82.4 µM | TGI (SF-295 CNS): 18.8 µM | TGI (SK-OV-3 ovarian): > 100 µM | TGI (U251 CNS): 37.5 µM | TGI (UACC-257 melanoma): 9.65 µM

Fc1cccc(Cl)c1/C=N\N=C1c2ccccc2-c2ccccc21
TGI (CCRF-CEM leukemia): > 100 µM | TGI (HCT-15 colon): > 100 µM | TGI (HOP-92 NSCLC): > 100 µM | TGI (K-562 leukemia): > 100 µM | TGI (KM12 colon): > 100 µM | TGI (OVCAR-8 ovarian): > 100 µM | TGI (SF-295 CNS): > 100 µM | TGI (SK-OV-3 ovarian): > 100 µM | TGI (U251 CNS): > 100 µM | TGI (UACC-257 melanoma): > 100 µM

CC(C)[C@H]1C(=O)N[C@@H](CCCN=C(N)N)C(=O)NCC(=O)N[C@@H](CC(=O)O)C(=O)N[C@H](Cc2ccccc2)C(=O)N1C
GI50 (CCRF-CEM leukemia): > 100 µM | TGI (CCRF-CEM leukemia): > 100 µM | GI50 (HCT-15 colon): 3.09 µM | TGI (HCT-15 colon): > 74.8 µM | GI50 (HOP-92 NSCLC): 0.385 µM | TGI (HOP-92 NSCLC): 2.47 µM | GI50 (K-562 leukemia): > 100 µM | TGI (K-562 leukemia): > 100 µM | GI50 (KM12 colon): > 100 µM | TGI (KM12 colon): > 100 µM | GI50 (OVCAR-8 ovarian): 7.35 µM | TGI (OVCAR-8 ovarian): > 100 µM | GI50 (SF-295 CNS): > 82.7 µM | TGI (SF-295 CNS): > 100 µM | GI50 (SK-OV-3 ovarian): > 100 µM | TGI (SK-OV-3 ovarian): > 100 µM | GI50 (U251 CNS): > 23.2 µM | TGI (U251 CNS): > 100 µM | GI50 (UACC-257 melanoma): > 27.9 µM | TGI (UACC-257 melanoma): > 100 µM

O=C(O)CSc1ncccc1[N+](=O)[O-]
TGI (CCRF-CEM leukemia): > 100 µM | TGI (HCT-15 colon): > 100 µM | TGI (HOP-92 NSCLC): > 100 µM | TGI (K-562 leukemia): > 100 µM | TGI (KM12 colon): > 100 µM | TGI (OVCAR-8 ovarian): > 100 µM | TGI (SF-295 CNS): > 100 µM | TGI (SK-OV-3 ovarian): > 100 µM | TGI (U251 CNS): > 100 µM | TGI (UACC-257 melanoma): > 100 µM

N#C[C@@H]1C(n2ccc(N)nc2=O)O[C@H](CO)[C@H]1O (some centres undefined)
GI50 (CCRF-CEM leukemia): 0.135 µM | TGI (CCRF-CEM leukemia): > 100 µM | GI50 (HCT-15 colon): > 100 µM | TGI (HCT-15 colon): > 100 µM | GI50 (HOP-92 NSCLC): 7.66 µM | TGI (HOP-92 NSCLC): > 100 µM | GI50 (K-562 leukemia): 19.6 µM | TGI (K-562 leukemia): > 100 µM | GI50 (KM12 colon): > 100 µM | TGI (KM12 colon): > 100 µM | GI50 (OVCAR-8 ovarian): 6 µM | TGI (OVCAR-8 ovarian): > 100 µM | GI50 (SF-295 CNS): > 100 µM | TGI (SF-295 CNS): > 100 µM | GI50 (SK-OV-3 ovarian): 39.6 µM | TGI (SK-OV-3 ovarian): > 100 µM | GI50 (U251 CNS): 42.7 µM | TGI (U251 CNS): > 100 µM | GI50 (UACC-257 melanoma): > 93.3 µM | TGI (UACC-257 melanoma): > 100 µM

CCN1CSC(=S)N(CC)C1
TGI (CCRF-CEM leukemia): > 100 µM | TGI (HCT-15 colon): > 100 µM | TGI (HOP-92 NSCLC): > 100 µM | TGI (K-562 leukemia): > 100 µM | TGI (KM12 colon): > 100 µM | TGI (OVCAR-8 ovarian): > 100 µM | TGI (SF-295 CNS): > 100 µM | TGI (SK-OV-3 ovarian): > 100 µM | TGI (U251 CNS): > 100 µM | TGI (UACC-257 melanoma): > 100 µM

CCOC(=O)COS(=O)(=O)C(F)(F)F
TGI (CCRF-CEM leukemia): > 100 µM | TGI (HCT-15 colon): 35.1 µM | TGI (HOP-92 NSCLC): > 100 µM | TGI (K-562 leukemia): > 100 µM | TGI (KM12 colon): > 100 µM | TGI (OVCAR-8 ovarian): > 100 µM | TGI (SF-295 CNS): > 100 µM | TGI (SK-OV-3 ovarian): > 100 µM | TGI (U251 CNS): > 100 µM | TGI (UACC-257 melanoma): > 100 µM

CC(C)(C)NC(=O)[C@H]1C[C@H]2CCCC[C@H]2CN1C[C@@H](O)[C@H](Cc1ccccc1)NC(=O)[C@H](CC(N)=O)NC(=O)c1ccc2ccccc2n1
GI50 (CCRF-CEM leukemia): 9.31 µM | TGI (CCRF-CEM leukemia): 28 µM | GI50 (HCT-15 colon): 14 µM | TGI (HCT-15 colon): 33.8 µM | GI50 (HOP-92 NSCLC): 4.17 µM | TGI (HOP-92 NSCLC): 20 µM | GI50 (K-562 leukemia): 8.51 µM | TGI (K-562 leukemia): 24.4 µM | GI50 (KM12 colon): 14 µM | TGI (KM12 colon): 34.8 µM | GI50 (OVCAR-8 ovarian): 23 µM | TGI (OVCAR-8 ovarian): 62.4 µM | GI50 (SF-295 CNS): 18.3 µM | TGI (SF-295 CNS): 39.3 µM | GI50 (SK-OV-3 ovarian): 18.9 µM | TGI (SK-OV-3 ovarian): 42.9 µM | GI50 (U251 CNS): 11.9 µM | TGI (U251 CNS): 24.4 µM | GI50 (UACC-257 melanoma): 13.4 µM | TGI (UACC-257 melanoma): 28.2 µM
